Laboratory results taken from publication PMC6420064 (Journal of medicinal chemistry, 2019).
“Also recorded” adds a separate entry of the source.

Key:
GlyT2 [1] = details: read-out: GlyT2 IC50; cited from earlier work
[2] = following IV administration; cited from earlier work
human GlyT2a = target: T1, human GlyT2a (Homo sapiens, UniProt Q9Y345); type: cell-based
T1 sequence (Q9Y345 1-797): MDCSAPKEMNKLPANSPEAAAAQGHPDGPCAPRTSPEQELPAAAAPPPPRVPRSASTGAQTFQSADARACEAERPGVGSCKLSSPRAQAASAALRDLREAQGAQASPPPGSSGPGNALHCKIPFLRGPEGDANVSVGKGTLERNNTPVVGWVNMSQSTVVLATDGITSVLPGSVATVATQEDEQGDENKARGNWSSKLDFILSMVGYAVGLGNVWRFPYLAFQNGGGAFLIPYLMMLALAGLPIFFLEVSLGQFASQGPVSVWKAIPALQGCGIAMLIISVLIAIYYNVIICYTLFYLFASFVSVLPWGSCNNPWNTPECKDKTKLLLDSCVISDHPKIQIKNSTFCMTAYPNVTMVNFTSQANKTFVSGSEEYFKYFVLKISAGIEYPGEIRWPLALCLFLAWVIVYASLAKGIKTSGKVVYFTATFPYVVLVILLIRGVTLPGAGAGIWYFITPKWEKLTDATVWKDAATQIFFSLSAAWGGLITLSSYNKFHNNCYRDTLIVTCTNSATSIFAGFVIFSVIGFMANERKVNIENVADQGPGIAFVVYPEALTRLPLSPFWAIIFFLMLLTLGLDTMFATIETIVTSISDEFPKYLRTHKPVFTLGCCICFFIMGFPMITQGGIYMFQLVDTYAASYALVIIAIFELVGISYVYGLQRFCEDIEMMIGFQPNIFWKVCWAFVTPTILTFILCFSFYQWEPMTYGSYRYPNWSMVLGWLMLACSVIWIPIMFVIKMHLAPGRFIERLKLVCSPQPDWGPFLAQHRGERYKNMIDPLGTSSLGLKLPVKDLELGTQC

[3] = system: nerve ligation rat model of neuropathic pain; type: in vivo; details: 30 mg/kg ip, compared to vehicle
male Sprague Dawley rats = assay: Side effects in the analgesia study; type: in vivo, rat; details: 30 mg/kg ip
GlyT1 = details: cited from earlier work
human GlyT1b = target: T2, human GlyT1b (Homo sapiens, UniProt P48067); type: cell-based; details: 3 μM (maximal concentration)
T2 sequence (P48067 1-652 isoform P48067-3): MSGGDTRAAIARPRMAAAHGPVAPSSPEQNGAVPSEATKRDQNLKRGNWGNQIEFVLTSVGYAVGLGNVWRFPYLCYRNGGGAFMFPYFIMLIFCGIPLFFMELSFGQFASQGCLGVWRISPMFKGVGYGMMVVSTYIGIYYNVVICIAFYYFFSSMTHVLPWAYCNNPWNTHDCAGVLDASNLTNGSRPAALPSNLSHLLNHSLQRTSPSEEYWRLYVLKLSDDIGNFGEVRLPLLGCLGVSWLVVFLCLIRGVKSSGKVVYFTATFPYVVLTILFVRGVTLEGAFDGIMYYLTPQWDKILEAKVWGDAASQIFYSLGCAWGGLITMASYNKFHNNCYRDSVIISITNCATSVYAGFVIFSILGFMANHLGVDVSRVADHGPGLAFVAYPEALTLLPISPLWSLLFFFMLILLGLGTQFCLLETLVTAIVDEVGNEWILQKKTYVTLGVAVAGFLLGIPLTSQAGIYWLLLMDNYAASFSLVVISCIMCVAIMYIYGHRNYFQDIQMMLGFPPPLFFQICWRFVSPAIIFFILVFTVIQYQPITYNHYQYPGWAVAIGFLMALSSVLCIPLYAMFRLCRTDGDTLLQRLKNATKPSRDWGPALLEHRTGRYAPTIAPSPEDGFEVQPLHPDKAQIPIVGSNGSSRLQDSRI

GlyT2 [4] = target: T3, GlyT2 (Homo sapiens, UniProt Q9Y345); assay: Electrophysiology washout assay; type: cell-based; details: IC50 concentration of inhibitor, after 25 minutes wash
T3 sequence (Q9Y345 1-797): T1 sequence (Q9Y345 1-797)

[5] = Stability in human plasma; type: in vitro ADME
Stability in rat plasma = type: in vitro ADME
[6] = Stability in human liver microsomes; type: in vitro ADME; details: for half-life at 1 μM: human, human liver microsomes, pH 7.4
[7] = Stability in rat liver microsomes; type: in vitro ADME
Adrenergic α2A receptor = target: T4, Adrenergic α2A receptor (Homo sapiens, UniProt P08913); assay: Selectivity panel, displacement of radioactive ligand; type: binding; details: 10 μM
T4 sequence (P08913 1-465): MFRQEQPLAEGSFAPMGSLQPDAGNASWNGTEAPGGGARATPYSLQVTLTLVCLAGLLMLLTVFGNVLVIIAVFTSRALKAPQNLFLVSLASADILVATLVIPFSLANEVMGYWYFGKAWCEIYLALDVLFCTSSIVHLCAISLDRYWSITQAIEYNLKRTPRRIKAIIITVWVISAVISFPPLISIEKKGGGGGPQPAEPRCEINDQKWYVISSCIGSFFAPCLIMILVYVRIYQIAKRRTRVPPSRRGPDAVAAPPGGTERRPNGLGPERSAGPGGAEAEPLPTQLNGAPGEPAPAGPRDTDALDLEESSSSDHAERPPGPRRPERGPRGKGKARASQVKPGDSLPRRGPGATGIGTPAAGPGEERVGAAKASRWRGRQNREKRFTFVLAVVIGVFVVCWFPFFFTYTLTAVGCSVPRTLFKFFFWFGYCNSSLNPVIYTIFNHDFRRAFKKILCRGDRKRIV

[8] = target: norepinephrine transporter (Homo sapiens, UniProt P23975); assay: as above; type: binding; details: 10 μM
Chain of norepinephrine transporter (P23975 whole entry, species assumed): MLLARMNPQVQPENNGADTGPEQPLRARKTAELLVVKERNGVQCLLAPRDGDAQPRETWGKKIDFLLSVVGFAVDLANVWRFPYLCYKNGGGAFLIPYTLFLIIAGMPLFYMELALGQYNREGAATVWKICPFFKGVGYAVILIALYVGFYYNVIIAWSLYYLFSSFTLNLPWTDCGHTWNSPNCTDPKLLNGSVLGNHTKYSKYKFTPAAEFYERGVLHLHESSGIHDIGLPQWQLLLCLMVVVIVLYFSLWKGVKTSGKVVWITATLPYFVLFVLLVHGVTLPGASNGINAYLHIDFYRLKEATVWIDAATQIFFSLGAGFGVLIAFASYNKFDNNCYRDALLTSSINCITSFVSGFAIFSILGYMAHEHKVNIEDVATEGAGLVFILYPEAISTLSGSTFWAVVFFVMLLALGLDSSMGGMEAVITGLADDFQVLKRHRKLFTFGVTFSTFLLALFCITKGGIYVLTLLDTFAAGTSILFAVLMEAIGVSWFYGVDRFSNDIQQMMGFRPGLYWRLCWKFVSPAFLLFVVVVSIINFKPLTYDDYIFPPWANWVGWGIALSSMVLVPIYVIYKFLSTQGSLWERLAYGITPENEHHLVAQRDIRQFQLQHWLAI

μ opioid receptor (μOR) = μ opioid receptor (μOR) (Homo sapiens, UniProt P35372); assay: as above; type: binding; details: 10 μM
Chain of μ opioid receptor (μOR) (P35372 whole entry, species assumed): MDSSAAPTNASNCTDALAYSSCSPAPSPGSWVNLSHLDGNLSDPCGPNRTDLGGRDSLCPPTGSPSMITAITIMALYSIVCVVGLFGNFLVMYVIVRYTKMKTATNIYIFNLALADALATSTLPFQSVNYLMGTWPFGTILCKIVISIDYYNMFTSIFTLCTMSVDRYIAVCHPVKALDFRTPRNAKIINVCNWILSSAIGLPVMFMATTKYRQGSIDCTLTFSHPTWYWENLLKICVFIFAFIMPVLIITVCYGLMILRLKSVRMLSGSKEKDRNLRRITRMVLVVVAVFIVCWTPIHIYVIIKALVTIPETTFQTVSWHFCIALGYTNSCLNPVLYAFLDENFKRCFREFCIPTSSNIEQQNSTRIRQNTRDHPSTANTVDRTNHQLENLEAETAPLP

μOR = μOR (Homo sapiens, UniProt P35372); assay: μOR agonist/antagonist activity in AtT20 cells expressing μORs; type: cell-based; details: 1 μM
Chain of μOR (P35372 whole entry): as the sequence (P35372 whole entry, species assumed) above

Nav channels = assay: Pain target screen, Nav channels
Cav channels = assay: Pain target screen, Cav channels
[9] = target: α7 nicotinic acetylcholine receptors (Homo sapiens, UniProt P36544); assay: Pain target screen, α7 nicotinic acetylcholine receptors
Chain of α7 nicotinic acetylcholine receptors (P36544 23-502): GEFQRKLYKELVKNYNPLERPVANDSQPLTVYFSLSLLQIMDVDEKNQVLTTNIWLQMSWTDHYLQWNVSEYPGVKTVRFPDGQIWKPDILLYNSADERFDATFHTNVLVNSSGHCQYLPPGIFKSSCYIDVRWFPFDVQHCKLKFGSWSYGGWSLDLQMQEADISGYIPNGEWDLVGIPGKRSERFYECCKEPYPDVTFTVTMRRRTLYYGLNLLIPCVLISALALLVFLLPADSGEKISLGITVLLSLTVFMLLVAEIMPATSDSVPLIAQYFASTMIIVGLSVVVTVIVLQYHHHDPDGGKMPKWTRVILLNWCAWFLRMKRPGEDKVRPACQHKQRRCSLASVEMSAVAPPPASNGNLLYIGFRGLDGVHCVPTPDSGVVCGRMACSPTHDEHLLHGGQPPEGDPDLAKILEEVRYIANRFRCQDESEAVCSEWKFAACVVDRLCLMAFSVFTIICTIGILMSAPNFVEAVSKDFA

CB1 = CB1 (Homo sapiens, UniProt P21554); assay: Lipid receptor screen, agonist/antagonist
Chain of CB1 (P21554 whole entry, species assumed): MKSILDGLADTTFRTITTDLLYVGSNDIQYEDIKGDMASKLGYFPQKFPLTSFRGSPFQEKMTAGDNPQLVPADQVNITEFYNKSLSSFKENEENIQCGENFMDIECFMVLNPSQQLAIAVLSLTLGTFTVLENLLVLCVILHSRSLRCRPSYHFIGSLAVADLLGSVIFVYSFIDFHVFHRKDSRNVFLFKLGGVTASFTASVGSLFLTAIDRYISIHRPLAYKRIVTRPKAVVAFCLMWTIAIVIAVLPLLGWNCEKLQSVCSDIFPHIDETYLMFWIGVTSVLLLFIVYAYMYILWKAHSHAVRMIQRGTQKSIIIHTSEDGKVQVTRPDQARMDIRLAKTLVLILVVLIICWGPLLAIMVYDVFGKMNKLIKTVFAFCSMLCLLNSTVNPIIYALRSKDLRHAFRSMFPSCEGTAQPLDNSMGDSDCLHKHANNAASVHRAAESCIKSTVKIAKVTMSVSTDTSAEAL

CB2 = CB2 (Homo sapiens, UniProt P34972); assay: Lipid receptor screen, agonist/antagonist
Chain of CB2 (P34972 whole entry, species assumed): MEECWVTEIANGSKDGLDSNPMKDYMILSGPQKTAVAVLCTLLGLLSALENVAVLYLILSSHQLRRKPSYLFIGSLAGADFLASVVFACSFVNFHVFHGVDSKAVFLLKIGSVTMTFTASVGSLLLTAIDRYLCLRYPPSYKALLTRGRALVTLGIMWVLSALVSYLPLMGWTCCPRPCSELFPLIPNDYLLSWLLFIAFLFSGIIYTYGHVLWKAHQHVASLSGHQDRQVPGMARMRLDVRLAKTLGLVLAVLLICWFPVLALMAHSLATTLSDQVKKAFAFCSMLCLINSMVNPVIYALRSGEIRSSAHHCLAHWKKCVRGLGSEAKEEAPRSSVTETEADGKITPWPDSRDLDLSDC

[10] = system: sphingosine-1-phosphate receptor; assay: Lipid receptor screen, agonist/antagonist
[11] = In vivo pharmacokinetic study, plasma and brain exposure; design: species or system rat
GlyT2 [12] = target: T3, GlyT2; type: cell-based

N[C@@H](COC(c1cccc(F)c1)c1ccccc1OCc1ccccc1)C(=O)O (stereo partly shown) [Compound 1, ALX1393]
IC50 (GlyT2 [1]): 100 nM | ratio of unbound drug in brain and plasma (Kp,uu) [2]: 0.05

CCCCCCCC/C=C\CCCCCCCC(=O)N[C@@H](CCCC)C(=O)O [Compound 14, (2S)-2-[[(Z)-octadec-9-enoyl]amino]hexanoic acid]
fold less potent than 10 at GlyT2 (human GlyT2a; relative to 10): 2 fold

CCCCCCCC/C=C\CCCCCCCC(=O)N[C@@H](CCSC)C(=O)O [Compound 12, (2S)-4-methylsulfanyl-2-[[(Z)-octadec-9-enoyl]amino]butanoic acid]
fold improvement in GlyT2 activity (human GlyT2a; relative to 14): ~ 9 fold

COc1cc(C(=O)NCC2(N(C)C)CCCC2)cc(OC)c1OCc1ccccc1 [Compound 2, ORG25543]
reversal of allodynia (analgesia) [3]: Non-significant reversal of allodynia | animals with side effects (male Sprague Dawley rats): 4 out of the 6 | duration of side effects post injection (male Sprague Dawley rats): up to 60 min | side effects (male Sprague Dawley rats): more severe side effects | IC50 (GlyT2 [1]): 16 nM | activity at GlyT1 (GlyT1): no appreciable activity

CCCCCCCC/C=C\CCCCCCCC(=O)NCCCCCN.Cl [Compound 37, (Z)-N-(5-aminopentyl)octadec-9-enamide.HCl]
fold reduction of GlyT2 potency (human GlyT2a; relative to 32): ~ 22 fold

CCCCC/C=C\C/C=C\C/C=C\C/C=C\CCCC(=O)NCC(=O)O [Compound 5, N-arachidonyl glycine]
activity at GlyT1 (GlyT1): little activity

CCCCCCCC/C=C\CCCCCCCC(=O)NCC(=O)O [Compound 4, N-oleoyl glycine]
effect on GlyT1 (GlyT1; concentrations up to 10 μM): no effect

CCCCCCCC/C=C\CCCCCCCC(=O)N[C@H](CCCCN)C(=O)O.Cl [Compound 33, (2R)-6-amino-2-[[(Z)-octadec-9-enoyl]amino]hexanoic acid.HCl]
inhibition of GlyT1 glycine currents (human GlyT1b): little inhibition | recovery of transport after washout (GlyT2 [4]): completely restored | degradation in human plasma [5]: did not exhibit measurable degradation | degradation in rat plasma (Stability in rat plasma): did not exhibit measurable degradation | stability in human liver microsomes [6]: stable | half-life at 1 μM [6]: > 4.25 h | stability in rat liver microsomes [7]: minimally degraded | half-life at 1 μM ([7]; rat, rat liver microsomes, pH 7.4): > 4.25 h | displacement of radioactive ligands (Adrenergic α2A receptor): greater than 50% | displacement of radioactive ligands [8]: greater than 50% | displacement of radioactive ligands (μ opioid receptor (μOR)): greater than 50% | activity as a μOR agonist or antagonist (μOR): no activity | inhibition of Nav channels (Nav channels): no significant inhibition | inhibition of Cav channels (Cav channels): no significant inhibition | inhibition of α7 nicotinic acetylcholine receptors [9]: no significant inhibition | activity as agonist or antagonist at CB1 (CB1): no activity | activity as agonist or antagonist at CB2 (CB2): no activity | activity as agonist or antagonist at sphingosine-1-phosphate receptor [10]: no activity | concentration of unbound drug (Cunbound) in brain at Cmax ([11]; 27.5 mg/kg ip): approximately 90 nM | Cmax Brain ([11]; single 27.5 mg/kg ip, Sprague Dawley rats): 1854 ng/g | reversal of allodynia (analgesia) [3]: significant analgesia; also recorded: Significant reversal of allodynia | duration of side effects post injection (male Sprague Dawley rats): up to 15 min | side effects (male Sprague Dawley rats): Mild side effects

CCCCCCCC/C=C\CCCCCCCC(=O)N[C@@H](CCCCN)C(=O)O.Cl [Compound 32, (2S)-6-amino-2-[[(Z)-octadec-9-enoyl]amino]hexanoic acid.HCl]
inhibition of GlyT1 glycine currents (human GlyT1b): not reduced | mechanism of GlyT2 inhibition (GlyT2 [12]): non-competitive inhibitor | half-life at 1000 ng/mL ([5]; human, human plasma (pooled)): > 17 h | fold improvement of degradation half-life (Stability in rat plasma; rat plasma, relative to 4): ~ 3 fold | stability in human liver microsomes [6]: stable | half-life at 1 μM [6]: > 4.25 h | stability in rat liver microsomes [7]: rapidly metabolised
